# Where a name gives a salt, the structure may show the parent alone.
# What was measured:
# [1] = system: hypoxic tumor fraction; test: Pimonidazole staining of tumor hypoxia in orthotopic 4T1ODD-luc tumors; assay type: in vivo, mice; settings: doxorubicin-treated vs control tumors
# Experimental: (§1) Five mice from a doxorubicin-treated group or a control group that received saline were sacrificed on days 0, 1, 4, 7 and 16. The hypoxia marker pimonidazole (70 mg/kg i.p., NPI, Raleigh, N.C., United States of America) and the perfusion marker dye Hoechst 33342 (1 mg/mouse i.v., Sigma-Aldrich) were administered as previously described (Cao et al., 2005). Upon excision, tumors were snap-frozen in liquid nitrogen, stored at −80° C., and cut into 10 μm frozen sections. HIF-1α fluorescent staining was performed with anti-HIF-1α antibody (Novus). Direct pimonidazole labeling was performed using Hypoxyprobe (mouse monoclonal IgG1, NPI, Raleigh, N.C., United States of America) and Zenon Alexa Fluor 555 mouse IgG labeling kit (Invitrogen). Entire tumor sections were imaged by scanning fluorescent microscopy. Individual scanned images were then reconstructed into one composite image of the entire section by Metamorph. […] Eight random fields (10×) per frozen section were analyzed to determine the mean tumor vascular fraction as the percentage of vessel area in total tumor area in each field. Cell proliferation was determined by immunostaining with a rabbit polyclonal anti-Ki67 antibody (ab15580, 1:100 dilution, Abcam, Cambridge, Massachusettes, United States of America) and an Alexa 594-conjugated goat anti-rabbit IgG antibody (1:300 dilution, Invitrogen). […]
# [2] = system: HIF-1α; test: Western blotting of HIF-1α in 4T1ODD-luc cells; assay type: cell-based, mouse; settings: normoxic, total cell lysate and nuclear extraction, 48 hours post-treatment
# Experimental: (§2) Cell nuclear proteins were extracted using the NucBuster protein extraction kit (Novagen, Gibbstown, N.J., United States of America). Total cell lysates or cell nuclear extractions were quantified using a protein assay reagent (Bio-Rad). Equal amounts of protein sample were separated by Bis-HCl gel (Bio-Rad) and transferred to a […] Immun-Blot PVDF membrane (Bio-Rad).
# [3] = system: iNOS; test: Real-time PCR of iNOS mRNA in 4T1ODD-luc cells; assay type: cell-based, mouse; settings: doxorubicin vs control treatment
# Experimental: Total RNA was prepared using the miRVana extraction kit (Applied Biosystems, Austin, Tex., United States of America). 1 μg of total RNA was reverse transcribed into cDNA using the iScript cDNA synthesis kit (BioRad, Hercules, Calif., United States of America). Real-time PCR was performed on an ABI7900HT Fast Real-Time PCR System using Power SYBRGreen PCR Mix (Applied Biosystems). PCR products were verified by melting curves. The threshold cycle (CT) values for each gene were normalized to expression levels of β-actin. The primers used were as follows: mouse iNOS, forward 5′-[…]-3′ (SEQ ID NO: 22); reverse 5′-[…]-3′ (SEQ ID NO: 23); the same β-actin primers were used for both human and mouse cell lines, forward 5′-[…]-3′ (SEQ ID NO: 24); and reverse 5′-[…]-3′ (SEQ ID NO: 25).
# [4] = system: tumor vasculature; test: Fluorescent staining of tumor vasculature in orthotopic 4T1ODD-luc tumors; assay type: in vivo, mice
# Experimental: Five mice from a doxorubicin-treated group or a control group that received saline were sacrificed on days 0, 1, 4, 7 and 16. The hypoxia marker pimonidazole (70 mg/kg i.p., NPI, Raleigh, N.C., United States of America) and the perfusion marker dye Hoechst 33342 (1 mg/mouse i.v., Sigma-Aldrich) were administered as previously described (Cao et al., 2005). Upon excision, tumors were snap-frozen in liquid nitrogen, stored at −80° C., and cut into 10 μm frozen sections. HIF-1α fluorescent staining was performed with anti-HIF-1α antibody (Novus). Direct pimonidazole labeling was performed using Hypoxyprobe (mouse monoclonal IgG1, NPI, Raleigh, N.C., United States of America) and Zenon Alexa Fluor 555 mouse IgG labeling kit (Invitrogen). Entire tumor sections were imaged by scanning fluorescent microscopy. Individual scanned images were then reconstructed into one composite image of the entire section by Metamorph. Tumor vasculature was stained by fluorescein-labeled Griffonia simplicifolia lectin I (isolectin B4) (1:200 dilution, Vector Laboratories, Burlingame, Calif., United States of America) as previously described (Cao et al., 2007). Eight random fields (10×) per frozen section were analyzed to determine the mean tumor vascular fraction as the percentage of vessel area in total tumor area in each field. Cell proliferation was determined by immunostaining with a rabbit polyclonal anti-Ki67 antibody (ab15580, 1:100 dilution, Abcam, Cambridge, Massachusettes, United States of America) and an Alexa 594-conjugated goat anti-rabbit IgG antibody (1:300 dilution, Invitrogen). Tumor activated macrophages were stained with rat anti-mouse CD68 antibody (1:100 dilution, Serotec, Raleigh, N.C., United States of America) and an Alexa 488-conjugated anti-rat IgG antibody (1:200 dilution, Invitrogen).
# [5] = system: HIF-1α; test: Bioluminescent imaging of orthotopic 4T1ODD-luc tumors in nude mice; assay type: in vivo
# Experimental: (§3) HIF-1α ODD-luciferase reporter activity was detected and quantified by the Xenogen IVIS bioluminescence imaging system (Xenogen Corporation, Alameda, Calif., United States of America) as previously described (Li et al., 2007). For in vitro imaging of cultured cells, 1×10^5 4 T1ODD-luc cells per well of 12-well plates were cultured with 2 ml culture medium for 24 hours. Then the cells were treated with doxorubicin hydrochloride (0.1, 1, or 10 μg/ml, Bedford Laboratories, Bedford, Ohio, United States of America) or an equal volume of control vehicle for 3 days under normoxic conditions (21% O2, 5% CO2). […] The activity of HIF-1α luciferase reporter was quantified daily. In animal studies, the bioluminescence of each tumor was detected on day 0 (before doxorubicin treatment) and on post-treatment days 1-7, 10, 13, and 16. During each imaging session mice were anesthetized with inhaled isoflurane and imaged 10 minutes after intraperitoneal (i.p.) injection of luciferin (150 mg/kg). Tumor bioluminescence intensity was normalized to the tumor volume at each time point.
# 5×10^6 4 T1ODD-luc tumor cells in 200 μl PBS were injected orthotopically in the right thoracic mammary fat pad of female NCr/nu nude mice (Moeller et al., 2004). Tumor volumes were calculated as follows: volume=(length×width^2×π)/6. When tumor size reached 7 mm in diameter, animals were randomized into two groups: the control mice were injected with 100 μl saline and the treated mice were injected once with the maximal tolerated dose (MTD) of doxorubicin (10 mg/kg) via tail vein (Vanhoefer et al., 1997). Tumor volume and luciferase reporter activity in vivo were measured on days 0, 1-7, 10, 13 and 16.
# [6] = system: HIF-1α; test: Immunohistochemical staining of HIF-1α in orthotopic 4T1ODD-luc tumors; assay type: in vivo, mice; settings: MTD doxorubicin vs saline, post-treatment days 1, 4, and 7
# Experimental: as §1
# [7] = system: nitric oxide; test: Flow cytometry of intracellular nitric oxide (DAF-FM) in 4T1ODD-luc cells; assay type: cell-based, mouse; settings: 1 μg/ml and 5 μg/ml doxorubicin, 48 hours, vs control
# Experimental: To detect intracellular nitric oxide levels, 1×10^6 4 T1ODD-luc cells were plated per 10-cm cell culture dish with 8 ml of cell culture medium. Doxorubicin (1 μg/ml and 5 μg/ml) or an equal volume of control solvent was added into the cell culture medium the next day and treatment continued for 48 hours. […] Equal amounts of solvent were added for the control group. To quantify intracellular nitric oxide, a single cell suspension was made after trypsinization. 2 ml of 5 uM nitric oxide-specific probe DAF-FM diacetate (4-amino-5-methylamino-2′,7′-difluorofluorescein diacetate) (Invitrogen) were incubated with each cell sample at room temperature in darkness for 30 minutes. The cells were washed with PBS and centrifuged to remove the excess DAF-FM diacetate probe. The cells were resuspended into 500 ul of phenol-free DMEM and incubated for another 20 minutes for complete intracellular deacetylation of the probe. The mean fluorescence intensity of the deacetylated DAF-FM reacted with nitric oxide was quantified by FACSCalibur flow cytometer in FITC channel (Becton Dickinson, Franklin Lakes, N.J., United States of America).
# [8] = system: VEGF; test: Mouse VEGF ELISA of 4T1ODD-luc conditioned medium; assay type: cell-based; settings: normoxic, doxorubicin 0.1, 1, and 10 μg/ml
# Experimental: 1×10^5 4 T1ODD-luc cells per well of 12-well plate were cultured with 1 ml cell culture medium overnight. The cells were treated with 0.1, 1, or 10 μg/ml of doxorubicin or without doxorubicin for 24, 48, and 72 hours. Secreted mouse VEGF in the conditioned medium at each time point was quantified by mouse VEGF ELISA kit (R & D Systems, Minneapolis, Minn., United States of America) and normalized to the number of living cells.
# [9] = system: perfused tumor fraction; test: Hoechst 33342 labeling of tumor perfusion in orthotopic 4T1ODD-luc tumors; assay type: in vivo, mice; settings: doxorubicin-treated vs control tumors
# Experimental: as §1
# [10] = system: HIF-1α; test: HIF-1α ODD-luciferase reporter in normoxic 4T1ODD-luc cells; assay type: cell-based, mouse
# Experimental: as §3
# [11] = system: STAT1; test: Western blotting of STAT1 and phospho-STAT1 in 4T1ODD-luc cells; assay type: cell-based, mouse; settings: doxorubicin 1 μg/ml
# Experimental: as §2
# [12] = system: tumor-activated macrophages; test: CD68 staining of tumor-activated macrophages in orthotopic 4T1ODD-luc tumors; assay type: in vivo, mice; settings: doxorubicin-treated vs saline-treated tumors
# Experimental: as §1
# [13] = system: iNOS; test: Western blotting of iNOS in 4T1ODD-luc cells; assay type: cell-based, mouse
# Experimental: as §2
# [14] = system: HIF-1α; test: Western blotting of HIF-1α in MCF-7 cells; assay type: cell-based, human; settings: normoxic MCF-7 cells
# Experimental: as §2
structure (smiles),measurement,setting,value
"COc1cccc2c1C(=O)c1c(O)c3c(c(O)c1C2=O)C[C@@](O)(C(=O)CO)C[C@@H]3O[C@H]1C[C@H](N)[C@H](O)[C@H](C)O1 [doxorubicin, doxorubicin hydrochloride]",hypoxic tumor fraction (pimonidazole staining),[1],no significant difference
same,HIF-1α protein expression,[2],enhanced
same,iNOS mRNA level,[3],significantly enhanced iNOS transcription
same,relative tumor vascular fraction,"[4]; doxorubicin vs control, first 24 hours",significant decrease in tumor vascular fraction
same,tumor vessels by fluorescent staining,"[4]; doxorubicin vs saline, day 4 post-treatment",more tumor vessels
same,relative tumor vascular fraction,"[4]; doxorubicin vs saline, day 16",still significantly higher compared to the saline-treated tumors
same,mean relative tumor vascular fraction,"[4]; doxorubicin-treated tumors, post-treatment day 4 (peak)",even higher than before chemotherapy treatment
same,HIF-1α reporter activity in tumors on day 16,"[5]; doxorubicin 10 mg/kg i.v. once vs saline, day 16",fell to a level similar to that in the control tumors
same,HIF-1α reporter activity in tumors,"[5]; doxorubicin 10 mg/kg i.v. once vs saline, from 3 days post-treatment",significantly elevated the HIF-1α reporter activity
same,peak in HIF-1 activation after doxorubicin treatment,[5]; in vivo,3 to 5 days
same,temporal course of doxorubicin-induced normoxic HIF-1α accumulation,"[5]; mouse, in vivo",3-5 days post-treatment
same,tumor HIF-1α positive fraction,[6],significantly increased the HIF-1α fraction
same,intracellular NO levels,[7],increased intracellular NO levels
same,secreted VEGF level,[8],significantly elevated the secreted VEGF level
same,perfused tumor fraction (Hoechst 33342 labeling),[9],no significant difference
same,"HIF-1α reporter activity, comparison of concentrations",[10]; 1 μg/ml doxorubicin,most potent upregulation
same,HIF-1α reporter activity,"[10]; doxorubicin 0.1, 1, or 10 μg/ml, 48 hours post-treatment",significant increase in HIF-1α reporter activity
same,STAT1 expression,[11],upregulated the expression of STAT1
same,STAT1 phosphorylation (Tyr701 and Ser727),[11],promoted the activation of STAT1
same,fraction of tumor-activated macrophages (CD68),[12],no significant difference
same,iNOS expression,"[13]; doxorubicin 1 μg/ml, normoxic conditions",stimulated iNOS expression
same,iNOS expression,"[13]; doxorubicin alone, first 24 hours post-treatment",initial decrease in iNOS expression
same,iNOS expression,"[13]; doxorubicin, 48 hours post-treatment",increase in iNOS expression
same,HIF-1α protein,[14],led to normoxic HIF-1α accumulation

# Source: US20140249097A1, “Inhibition of HIF-1 activation for Anti-Tumor and Anti-Inflammatory responses” (priority 2010, published 2014)
